Source: patent US11311576B2, “Methods of use for CAR T cells” (Seattle Children's Hospital, priority 2018, dated 2022)

Key:
Format in all cases: cell-based, human
HOS-FRα [1] = test: CAR-T cell activation markers (CD69, CD137, PD1) after 24 h co-culture with EC17-preloaded targets; conditions: targets preloaded with 100 nM EC17 30 min, E/T 1:1, 24 hours
Method: (§1) To study CAR-T cell activation in the presence of FR+ tumor cell targets (FIG. 53), co-culture experiments were initially carried out with MDA-MB-231, THP1-FRβ and HOS-FRα. […] After 24 hours of co-culture, the surface expression of T cell activation markers CD69, CD137 (4-1BB), and PD1 were analyzed by flow cytometry. For T cell exhaustion studies (FIG. 54), FR+(KB, MDA-MB-231, HOS-FRα^fLuc, THP1-FRβ) and FR-negative (HOS-143b^fLuc, THP1-FG12) tumor cell lines were used as targets. Here, target cells were incubated on day 0 without or with 0.1 and 10 nM of EC17 for 30 min at 37° C. and the status of EC17 “pre-loading” was assessed by counterstaining cell-surface EC17 with an anti-FITC antibody (FIG. 61A). Three days later, the surface expression of PD1, LAG3, and TIM3 inhibitor receptors on co-cultured CAR-T cells were analyzed and higher frequencies of double- and triple-positive cells were considered approaching an exhausted phenotype.
(§2) To examine antigen-dependent CAR-T cell activation, MDA-MB-231, THP1-FRβ and HOS-FRα cells were preloaded with 100 nM EC17 over 30 min. […] After 24 hours of co-culture, we measured the surface expression of T cell activation markers CD69, CD137 (4-1BB) and PD1 (FIG. 53). […] Importantly, the mock controls T cells were not activated under these conditions. Some FR+ tumor types (e.g. KB) display a natural resistance to killing by EC17-directed CAR T cells (FIGS. 56, 58, 59, and 60), we studied T cell activation versus exhaustion as a mechanism of EC17 CAM action. Both FR+(KB, MDA-MB-231, HOS-FRα^fLuc, THP1-FRβ) and FR-negative (HOS-143b^fLuc, THP1-FG12) tumor cell lines were chosen for this purpose. HOS-FRα^fLuc expressed ˜5.6× lower level of functional FR than its parent HOS-FRα, and HOS-143b^fLuc was FR-negative similar to HOS-143b (FIG. 59A). […] Three days later, co-cultured CAR-T cells were measured for upregulation and co-expression of T cell activation/exhaustion markers PD1, LAG3 and TIM3. […]

MDA-MB-231 [2] = test: as above; conditions: targets preloaded with 100 nM EC17 30 min, E/T 1:1, 24 hours
Method: as §1, §2

THP1-FRb = test: as above; conditions: targets preloaded with 100 nM EC17 30 min, E/T 1:1, 24 hours
Method: as §1, §2

HOS-FRα [3] = test: EC17 dose response, specific lysis in co-culture with E2-CAR-T cells (LDH assay); conditions: 24 hours co-culture
Method: (§3) After 24 hours of co-culture, supernatants were harvested to determine tumor cell killing. To study the kinetics of T cell activation and FR correlation in vitro (FIG. 60A, FIG. 60B, FIG. 60C, FIG. 60D, FIG. 60E), co-cultures were carried out in FR+/− cell lines at varying E/T ratios (1:27, 1:9, 1:3, 1:1, 3:1) in the continuous presence of 10 nM EC17. The kinetics of tumor cell killing were quantified after 16 and 48 hours of co-culture. Meanwhile, a portion of the supernatants was taken after 44 hours of co-culture for measurement of IFNg, IL-2 and TNFα. Using Promega's CytoTox 96® LDH assay kit, target cell killing was quantified and expressed as specific lysis (%) which was normalized to basal levels in the absence of EC17 at defined E/T ratios. The LEGENDplex™ human Th1 cytokine panel (BioLegend, San Diego, Calif.) was used to determine CAR-T cell derived cytokines.
(§4) To study the robustness of CAR-T cell activation, 5 FR+ cell lines (KB, MDA-MB-231, HOS-FRα, THP1-FRβ, OV90) were used along with a wide range of EC17 concentration (0.1 pM to 100 μM) at an E/T ratio of 1:1 (FIG. 59A, FIG. 59B). Specific lysis (%) was quantified by Promega's LDH cytotoxicity assay kit after 24 hours of co25 culture. In all cell lines, EC17-dependent cytolysis followed a bell-shaped dose response with a somewhat broad concentration plateau (˜0.1 nM to […]) (FIG. 59A). […] However, maximal lysis obtained for each cell line ranked differently at 45% (MDA-MB-231), 27% (THP1-FRb), 18% (HOS-FRα), 15% (OV90) and 11% (KB) (FIG. 59B).

KB = test: as above; conditions: 24 hours co-culture
Method: as §3, §4

MDA-MB-231 [4] = test: as above; conditions: 24 hours co-culture
Method: as §3, §4

THP1-FRβ = test: as above; conditions: 24 hours co-culture
Method: as §3, §4

OV90 = test: as above; conditions: 24 hours co-culture
Method: as §3, §4

[5] = Homo sapiens, EC17, E/T 1:1, curve fitted up to 100 nM, read-out: half-maximal effective concentration (EC50), specific lysis

Question: For `NC1=NC2N=CC(CNc3ccc(C(=O)N[C@@H](CCC(=O)NCCNC(=S)Nc4ccc(-c5c6ccc(=O)cc-6oc6cc(O)ccc56)c(C(=O)O)c4)C(=O)O)cc3)=NC2C(=O)N1` (stereo partly shown) [EC17, FA-(g)-ethylenediamine-FITC], which “CAR-T cell activation (CD69, CD137, PD1)” value (HOS-FRα [1]) is on record?
Answer: strong activators of our CAR-T cells

Question: What about the “CAR-T cell activation (CD69, CD137, PD1)” value (MDA-MB-231 [2]) of the same compound?
Answer: strong activators of our CAR-T cells

Question: What about the “CAR-T cell activation (CD69, CD137, PD1)” value (THP1-FRb) of the same compound?
Answer: did trigger CAR-T cell activation, but at lower levels

Question: And the maximal lysis (HOS-FRα [3]; E/T 1:1)?
Answer: 18%

Question: What about the EC50 (HOS-FRα [3]; [5]) of the same compound?
Answer: 0.03 nM

Question: What about the maximal lysis (KB; E/T 1:1) of the same compound?
Answer: 11%

Question: And the EC50 (KB; Homo sapiens, KB, E/T 1:1, curve fitted up to 100 nM, read-out: half-maximal effective concentration (EC50), specific lysis)?
Answer: 0.0053 nM

Question: What about the maximal lysis (MDA-MB-231 [4]; E/T 1:1) of the same compound?
Answer: 45%

Question: What about the EC50 (MDA-MB-231 [4]; Homo sapiens, MDA-MB-231, E/T 1:1, curve fitted up to 100 nM, read-out: half-maximal effective concentration (EC50), specific lysis) of the same compound?
Answer: 0.0045 nM

Question: What about the maximal lysis (THP1-FRβ; E/T 1:1) of the same compound?
Answer: 27%

Question: What about the EC50 (THP1-FRβ; [5]) of the same compound?
Answer: 0.015 nM

Question: What about the maximal lysis (OV90; E/T 1:1) of the same compound?
Answer: 15%

Question: What about the EC50 (OV90; Homo sapiens, OV-90, E/T 1:1, curve fitted up to 100 nM, read-out: half-maximal effective concentration (EC50), specific lysis) of the same compound?
Answer: 0.418 nM
